Measurements taken from ChEMBL document CHEMBL1126851, “Conformationally restrained analogs of sympathomimetic catecholamines. Synthesis, conformational analysis, and adrenergic activity of isochroman derivatives” (J Med Chem, 1993).

What was measured:
[1] = biological target: T1, Adrenergic receptor alpha-1 (Rattus norvegicus) (UniProt P15823+P23944+P43140); assay: Intrinsic activity against alpha-1 receptor in isolated rat vas deferens; format: tissue-based
[2] = biological target: Beta-2 adrenergic receptor (Cavia porcellus) (UniProt Q8K4Z4)
Beta-2 adrenergic receptor (Cavia porcellus), sequence (Q8K4Z4 whole entry, looked up): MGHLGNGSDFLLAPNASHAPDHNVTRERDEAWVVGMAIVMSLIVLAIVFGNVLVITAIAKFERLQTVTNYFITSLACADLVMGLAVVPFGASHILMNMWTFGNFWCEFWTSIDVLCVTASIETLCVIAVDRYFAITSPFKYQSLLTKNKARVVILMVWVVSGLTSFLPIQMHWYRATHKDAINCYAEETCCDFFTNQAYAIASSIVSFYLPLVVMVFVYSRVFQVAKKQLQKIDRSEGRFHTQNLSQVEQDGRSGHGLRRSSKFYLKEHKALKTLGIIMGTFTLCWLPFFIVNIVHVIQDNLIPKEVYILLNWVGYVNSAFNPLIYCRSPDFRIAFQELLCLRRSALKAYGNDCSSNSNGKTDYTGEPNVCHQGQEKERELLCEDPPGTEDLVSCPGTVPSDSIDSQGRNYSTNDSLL

[3] = biological target: T1, Adrenergic receptor alpha-1 (Rattus norvegicus); assay: Tested for alpha adrenergic activity against alpha-1 receptor from isolated rat vas deferens; format: tissue-based
[4] = biological target: Beta-1 adrenergic receptor (Cavia porcellus) (UniProt B0FL73); assay: Intrinsic activity against beta-1 receptor in isolated guinea pig atria
Beta-1 adrenergic receptor (Cavia porcellus), sequence (B0FL73 1-467): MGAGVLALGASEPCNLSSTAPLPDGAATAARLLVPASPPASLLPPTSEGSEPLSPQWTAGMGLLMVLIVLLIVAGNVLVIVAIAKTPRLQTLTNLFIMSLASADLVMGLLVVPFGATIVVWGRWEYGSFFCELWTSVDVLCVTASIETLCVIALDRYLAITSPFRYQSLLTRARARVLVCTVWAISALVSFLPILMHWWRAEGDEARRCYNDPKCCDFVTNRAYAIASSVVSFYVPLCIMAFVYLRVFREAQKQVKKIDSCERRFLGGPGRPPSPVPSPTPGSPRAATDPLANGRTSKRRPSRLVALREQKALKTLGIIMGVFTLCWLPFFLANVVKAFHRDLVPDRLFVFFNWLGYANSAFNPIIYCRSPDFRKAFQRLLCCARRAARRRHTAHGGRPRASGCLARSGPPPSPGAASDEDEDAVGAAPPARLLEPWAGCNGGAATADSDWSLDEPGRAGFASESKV

[5] = biological target: T2, Adrenergic receptor alpha-2 (UniProt P08913+P18825+P18089); conditions: Cavia porcellus; Ileum
T2 sequence (P08913 whole entry, looked up): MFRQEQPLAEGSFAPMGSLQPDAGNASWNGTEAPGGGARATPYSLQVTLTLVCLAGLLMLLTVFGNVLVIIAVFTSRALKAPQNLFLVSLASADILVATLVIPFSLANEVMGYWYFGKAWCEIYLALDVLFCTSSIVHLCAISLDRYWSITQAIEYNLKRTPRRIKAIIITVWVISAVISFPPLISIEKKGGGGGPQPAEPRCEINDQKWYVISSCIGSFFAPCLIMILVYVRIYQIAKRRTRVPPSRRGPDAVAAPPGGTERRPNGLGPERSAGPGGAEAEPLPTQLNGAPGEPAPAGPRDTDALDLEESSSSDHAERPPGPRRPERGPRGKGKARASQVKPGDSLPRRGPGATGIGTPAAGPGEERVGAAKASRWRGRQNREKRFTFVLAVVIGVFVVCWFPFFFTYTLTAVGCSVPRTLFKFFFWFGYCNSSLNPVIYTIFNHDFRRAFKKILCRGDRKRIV
T2 sequence (P18089 whole entry, looked up): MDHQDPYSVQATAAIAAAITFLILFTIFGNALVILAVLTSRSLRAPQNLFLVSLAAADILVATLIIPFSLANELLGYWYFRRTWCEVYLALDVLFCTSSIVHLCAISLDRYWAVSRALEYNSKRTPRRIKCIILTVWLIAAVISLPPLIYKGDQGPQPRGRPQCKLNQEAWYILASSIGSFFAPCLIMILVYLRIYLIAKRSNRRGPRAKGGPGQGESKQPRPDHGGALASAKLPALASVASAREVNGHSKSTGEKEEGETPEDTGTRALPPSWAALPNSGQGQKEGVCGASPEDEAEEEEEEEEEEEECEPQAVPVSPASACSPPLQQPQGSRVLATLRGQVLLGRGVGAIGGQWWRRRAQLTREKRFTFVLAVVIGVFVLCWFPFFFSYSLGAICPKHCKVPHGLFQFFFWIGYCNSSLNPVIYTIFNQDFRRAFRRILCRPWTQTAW
T2 sequence (P18825 whole entry, looked up): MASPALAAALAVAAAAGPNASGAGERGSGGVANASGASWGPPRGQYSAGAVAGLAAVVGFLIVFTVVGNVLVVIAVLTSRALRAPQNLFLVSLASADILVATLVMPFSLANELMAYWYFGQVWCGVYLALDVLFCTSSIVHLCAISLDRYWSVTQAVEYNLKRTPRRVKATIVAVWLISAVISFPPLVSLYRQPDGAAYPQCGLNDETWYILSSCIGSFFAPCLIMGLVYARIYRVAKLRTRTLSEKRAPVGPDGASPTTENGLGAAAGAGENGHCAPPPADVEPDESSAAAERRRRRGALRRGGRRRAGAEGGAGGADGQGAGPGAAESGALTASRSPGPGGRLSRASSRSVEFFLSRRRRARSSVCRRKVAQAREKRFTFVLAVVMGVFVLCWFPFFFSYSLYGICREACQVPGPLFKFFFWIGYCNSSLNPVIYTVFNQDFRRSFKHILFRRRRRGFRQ
Description: Intrinsic activity against alpha-2 receptor in isolated guinea pig ileum

[6] = biological target: T2, Adrenergic receptor alpha-2; conditions: Cavia porcellus; Ileum; remark: listed apart in the source
Description: Tested for alpha adrenergic activity against alpha-2 receptor from isolated guinea pig ileum

[7] = biological target: Beta-1 adrenergic receptor (Cavia porcellus) (UniProt B0FL73)
Description: (§1) Inhibitory activity against beta-1 adrenergic receptor in guinea pig atria is determined

[8] = biological target: Beta-2 adrenergic receptor (Cavia porcellus) (UniProt Q8K4Z4); remark: listed apart in the source
[9] = biological target: T3, Adrenergic receptor alpha-1 (Rattus norvegicus, UniProt P15823+P23944+P43140)
T3 sequence (P15823 whole entry): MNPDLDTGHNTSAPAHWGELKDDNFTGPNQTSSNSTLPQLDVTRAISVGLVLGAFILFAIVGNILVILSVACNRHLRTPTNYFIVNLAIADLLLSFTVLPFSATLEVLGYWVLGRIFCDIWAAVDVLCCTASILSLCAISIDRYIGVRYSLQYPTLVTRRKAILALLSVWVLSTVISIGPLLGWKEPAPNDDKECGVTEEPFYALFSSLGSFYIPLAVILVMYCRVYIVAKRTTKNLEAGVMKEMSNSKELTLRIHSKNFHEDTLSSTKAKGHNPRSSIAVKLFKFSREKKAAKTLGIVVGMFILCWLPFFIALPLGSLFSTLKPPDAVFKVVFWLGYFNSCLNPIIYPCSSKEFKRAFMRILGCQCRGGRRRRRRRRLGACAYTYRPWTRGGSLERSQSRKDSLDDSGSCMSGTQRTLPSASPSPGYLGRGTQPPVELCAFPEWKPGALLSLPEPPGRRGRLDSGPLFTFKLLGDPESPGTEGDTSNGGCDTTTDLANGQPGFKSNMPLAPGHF
T3 sequence (P23944 whole entry): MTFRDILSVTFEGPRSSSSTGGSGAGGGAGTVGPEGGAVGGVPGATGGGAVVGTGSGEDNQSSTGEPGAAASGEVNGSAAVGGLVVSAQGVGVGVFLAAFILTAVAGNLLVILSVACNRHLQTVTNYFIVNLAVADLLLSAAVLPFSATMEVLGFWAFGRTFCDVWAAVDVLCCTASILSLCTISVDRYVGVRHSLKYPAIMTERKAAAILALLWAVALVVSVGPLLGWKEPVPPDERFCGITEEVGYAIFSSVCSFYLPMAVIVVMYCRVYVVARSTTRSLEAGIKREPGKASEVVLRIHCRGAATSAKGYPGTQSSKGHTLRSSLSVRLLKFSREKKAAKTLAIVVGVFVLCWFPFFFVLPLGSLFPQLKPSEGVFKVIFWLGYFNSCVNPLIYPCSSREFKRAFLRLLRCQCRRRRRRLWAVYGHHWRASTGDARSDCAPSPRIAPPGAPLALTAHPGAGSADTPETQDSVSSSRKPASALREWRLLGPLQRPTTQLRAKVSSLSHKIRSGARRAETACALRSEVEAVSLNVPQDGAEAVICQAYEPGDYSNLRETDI
T3 sequence (P43140 whole entry): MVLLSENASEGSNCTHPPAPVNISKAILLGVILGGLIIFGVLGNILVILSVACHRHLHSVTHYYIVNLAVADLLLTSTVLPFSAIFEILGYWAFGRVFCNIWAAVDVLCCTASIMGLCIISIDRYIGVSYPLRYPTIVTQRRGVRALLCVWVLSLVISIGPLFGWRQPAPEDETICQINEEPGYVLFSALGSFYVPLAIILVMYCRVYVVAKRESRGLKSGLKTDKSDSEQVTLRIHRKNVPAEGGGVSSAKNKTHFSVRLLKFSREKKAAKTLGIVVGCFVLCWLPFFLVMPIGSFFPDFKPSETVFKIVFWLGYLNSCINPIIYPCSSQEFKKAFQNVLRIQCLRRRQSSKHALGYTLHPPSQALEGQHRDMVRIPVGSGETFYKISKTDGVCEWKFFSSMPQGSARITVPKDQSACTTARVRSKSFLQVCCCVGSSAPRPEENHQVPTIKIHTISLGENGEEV

[10] = biological target: T4, Adrenergic receptor alpha-2 (Rattus norvegicus, UniProt P22086+P19328+P22909)
T4 sequence (P22086 whole entry): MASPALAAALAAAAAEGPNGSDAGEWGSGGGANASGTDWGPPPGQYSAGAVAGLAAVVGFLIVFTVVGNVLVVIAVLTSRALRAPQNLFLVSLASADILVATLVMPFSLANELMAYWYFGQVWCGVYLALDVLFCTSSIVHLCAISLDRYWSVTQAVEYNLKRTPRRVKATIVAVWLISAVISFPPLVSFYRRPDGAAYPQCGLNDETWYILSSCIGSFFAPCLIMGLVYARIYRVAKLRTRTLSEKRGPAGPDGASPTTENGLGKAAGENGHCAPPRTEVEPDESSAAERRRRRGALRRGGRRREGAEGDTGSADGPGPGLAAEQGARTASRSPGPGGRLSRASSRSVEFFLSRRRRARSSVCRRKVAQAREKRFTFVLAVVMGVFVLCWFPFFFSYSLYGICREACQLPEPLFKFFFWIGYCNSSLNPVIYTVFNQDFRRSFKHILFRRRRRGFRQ
T4 sequence (P19328 whole entry): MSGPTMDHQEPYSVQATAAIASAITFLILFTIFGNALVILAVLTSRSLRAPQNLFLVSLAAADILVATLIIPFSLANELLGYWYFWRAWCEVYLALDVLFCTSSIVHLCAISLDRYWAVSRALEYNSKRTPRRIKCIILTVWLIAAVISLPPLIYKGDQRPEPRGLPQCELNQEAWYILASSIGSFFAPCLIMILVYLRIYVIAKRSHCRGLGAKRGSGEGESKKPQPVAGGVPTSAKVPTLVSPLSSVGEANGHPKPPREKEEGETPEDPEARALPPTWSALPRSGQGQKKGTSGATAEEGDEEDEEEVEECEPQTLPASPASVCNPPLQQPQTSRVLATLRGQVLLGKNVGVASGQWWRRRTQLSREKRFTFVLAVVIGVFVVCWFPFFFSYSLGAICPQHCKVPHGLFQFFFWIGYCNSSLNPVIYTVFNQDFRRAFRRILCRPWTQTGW
T4 sequence (P22909 whole entry): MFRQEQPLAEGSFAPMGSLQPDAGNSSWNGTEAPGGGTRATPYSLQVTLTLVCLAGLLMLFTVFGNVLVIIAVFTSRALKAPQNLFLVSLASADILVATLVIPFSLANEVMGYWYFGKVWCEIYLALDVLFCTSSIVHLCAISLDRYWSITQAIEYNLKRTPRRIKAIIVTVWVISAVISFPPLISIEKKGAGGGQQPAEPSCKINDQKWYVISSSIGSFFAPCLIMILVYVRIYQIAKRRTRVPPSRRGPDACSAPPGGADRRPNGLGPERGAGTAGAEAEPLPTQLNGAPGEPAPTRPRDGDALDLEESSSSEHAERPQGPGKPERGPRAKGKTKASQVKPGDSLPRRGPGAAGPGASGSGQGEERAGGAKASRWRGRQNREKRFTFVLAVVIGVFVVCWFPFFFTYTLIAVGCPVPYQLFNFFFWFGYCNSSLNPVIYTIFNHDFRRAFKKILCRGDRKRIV

[11] = biological target: Beta-2 adrenergic receptor (Bos taurus, UniProt Q28044); assay: Tested for binding affinity against beta-2 adrenergic receptor in bovine lung using [3H]DHA as radioligand
Beta-2 adrenergic receptor (Bos taurus, UniProt Q28044), sequence (Q28044 whole entry): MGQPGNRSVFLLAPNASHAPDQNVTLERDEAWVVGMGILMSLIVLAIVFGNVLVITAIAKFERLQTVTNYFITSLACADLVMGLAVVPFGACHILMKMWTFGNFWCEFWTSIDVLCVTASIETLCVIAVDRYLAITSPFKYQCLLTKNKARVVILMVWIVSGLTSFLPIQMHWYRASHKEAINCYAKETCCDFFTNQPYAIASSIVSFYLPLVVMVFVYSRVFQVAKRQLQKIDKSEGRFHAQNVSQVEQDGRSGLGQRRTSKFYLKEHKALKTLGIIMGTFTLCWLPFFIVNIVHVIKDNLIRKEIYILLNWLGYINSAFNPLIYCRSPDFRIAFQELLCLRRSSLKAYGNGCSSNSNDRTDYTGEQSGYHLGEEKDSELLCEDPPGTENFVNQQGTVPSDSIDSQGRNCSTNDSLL

[12] = biological target: Beta-2 adrenergic receptor (Cavia porcellus, UniProt Q8K4Z4); assay: Inhibitory activity against beta-2 adrenergic receptor in guinea pig tracheal strip is determined
Beta-2 adrenergic receptor (Cavia porcellus, UniProt Q8K4Z4), sequence (Q8K4Z4 whole entry): as the sequence (Q8K4Z4 whole entry, looked up) above

[13] = biological target: Beta-1 adrenergic receptor (Cavia porcellus, UniProt B0FL73)
Beta-1 adrenergic receptor (Cavia porcellus, UniProt B0FL73), sequence (B0FL73 whole entry): as the sequence (B0FL73 1-467) above
Description: as §1

[14] = biological target: Beta-1 adrenergic receptor (Rattus norvegicus, UniProt P18090); assay: biochemical
Beta-1 adrenergic receptor (Rattus norvegicus, UniProt P18090), sequence (P18090 whole entry): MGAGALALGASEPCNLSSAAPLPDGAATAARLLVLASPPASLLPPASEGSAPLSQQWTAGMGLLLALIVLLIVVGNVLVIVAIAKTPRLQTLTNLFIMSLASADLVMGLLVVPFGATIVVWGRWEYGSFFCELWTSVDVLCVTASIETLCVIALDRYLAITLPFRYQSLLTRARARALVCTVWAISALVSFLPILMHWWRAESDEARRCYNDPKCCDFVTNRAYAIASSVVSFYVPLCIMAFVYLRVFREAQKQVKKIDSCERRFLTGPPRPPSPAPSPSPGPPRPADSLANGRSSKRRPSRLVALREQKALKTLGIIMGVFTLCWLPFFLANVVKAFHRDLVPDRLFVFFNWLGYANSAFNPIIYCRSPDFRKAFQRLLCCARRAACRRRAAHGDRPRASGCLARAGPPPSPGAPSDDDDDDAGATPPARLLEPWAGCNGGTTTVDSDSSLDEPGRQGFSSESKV
Description: Tested for binding affinity against beta-1 adrenergic receptor in rat brain using [3H]-CGP- 26505 as radioligand

[15] = biological target: T3, Adrenergic receptor alpha-1; assay: -log IC50 value against alpha-1 receptor in rat vas deferens; format: tissue-based

| SMILES | IA [1] | IA [2] | pD2 [3] | IA [4] | IA [5] | pD2 [6] | pD2 [7] | pD2 [8] | Ki [9] | Ki [10] | Ki [11] | IC50 [12] | IC50 [13] | Ki [14] | -Log IC50 [15] |
| --- | --- | --- | --- | --- | --- | --- | --- | --- | --- | --- | --- | --- | --- | --- | --- |
| CC(C)NCC(O)c1ccc(O)c(O)c1 (stereo unspecified) | 0.83 | 1 | – | – | – | – | – | – | – | – | – | – | – | – | – |
| NC[C@H](O)c1ccc(O)c(O)c1 | 1 | 1 | 5.12 | 1 | 1 | 6.56 | 6.32 | 6.03 | – | – | – | – | – | – | – |
| CC(C)NCC1OCCc2cc(O)c(O)cc21 (stereo unspecified) | – | – | – | – | 0.72 | 4.56 | – | – | 26 µM | 4.12 µM | 4.9 µM | 5.5 µM | 33.9 µM | 1.49 µM | – |
| NCC1OCCc2cc(O)c(O)cc21 (stereo unspecified) | 0.42 | – | 3.97 | – | 0.73 | 5.45 | – | – | 60.3 µM | 1.28 µM | 28.8 µM | 30.2 µM | 6.76 µM | 3.45 µM | – |
| CC(C)NCC1OCCc2c1ccc(O)c2O (stereo unspecified) | – | – | – | – | 1 | 5.26 | – | < 3.5 | 21.5 µM | 1.78 µM | 14.9 µM | – | > 316 µM | 28.8 µM | < 3.5 |
| NCC1OCCc2c1ccc(O)c2O (stereo unspecified) | 1.03 | – | 4.69 | – | 1 | – | – | – | 42.2 µM | 0.0074 µM | 49.9 µM | > 316 µM | 66.1 µM | 40.3 µM | – |
